Source: patent publication US7060451B2, “Methods for screening GABA-modulatory compounds for specified pharmacological activities” (Neurogen Corporation, priority 1999, dated 2006)

Tests used:
[1] = molecular target: GABAA receptors (benzodiazepine site, Ro15-1788 binding sites), rat cortex; assay: Ro15-1788 competition binding assay, rat cortex membranes; details: displacement of 3H Ro15-1788, read-out: Ro15-1788 binding, K1
Experimental: Rat cortex membranes are prepared by homogenizing one or two previously frozen rat cortexes in 30 ml of 25 mM Tris Buffer, pH 7.4. The homogenate is centrifuged for 10 minutes at 500× g. The supernatant is then transferred to a clean centrifuge tube and the pellet discarded. The supernatant is spun for 20 minutes at 48,000× g. The supernatant from this spin is discarded and the pellet is resuspended in 30 ml of 25 mM Tris Buffer, pH 7.4 and centrifuged for an additional 10 minutes at 48,000× g. The supernatant from the final spin is discarded and the membrane pellet is resuspended in 100 mL Tris buffer per gram of cortex used.
The cortex membrane preparation is used to perform either percent inhibition or competition binding assays. In order to determine percent inhibition 300 μl of resuspended membranes are mixed with 200 μl ^3H labeled Ro15-1788 (final concentration 2.5 nM) and incubated for 1 hour on ice in the presence of 2 μl test compound in DMSO (final concentration 4 μM). Membranes are harvested onto untreated filtermats. The filtermats are dried and the ^3H Ro15-1788 signal is counted in a scintillation counter. Nonspecific binding is determined by displacement of ^3H Ro15-1788 with 10 μM Diazepam (RBI) or any other compound known to bind tightly at the benzodiazepine site.
K1 values are calculated according to the Cheng-Prussof equation.

rats [2] = assay: spontaneous locomotor activity; format: in vivo; details: rat
Experimental: Spontaneous locomotor activity can be measured to determine sedative effects of compounds. Locomotor activity is measured in eight computerized Digiscan-16 Animal Activity Monitors (Omnitech Electronics, Columbus, Ohio) equipped with 48 infrared photocell emitters and detectors. Each box is constructed of Plexiglas sides and floor. Horizontal activity is detected by a set of horizontal sensors on the front to back walls and a second group of sensors on the side to side walls located 5 cm above the cage floor. Vertical activity is detected by a third set of sensors on the side to side walls located 13.5 cm above the cage floor. The rats are tested in the presence of white noise (62 dB) and red St light (60 watt).
Test compound is administered IV in a 50% PEG vehicle 5 minutes prior to the test session. A range of compound doses is typically used and 6 to 8 rats are tested at each dose. The animal's movement time, vertical activity, and total distance traveled are tracked over a 15 minute test session. A sedative, or hypnotic, effect in the spontaneous locomotor activity model is defined by a decrease in any two of these three measures relative to animals given vehicle alone.

rats [3] = assay: step-down passive avoidance; format: in vivo; details: rat; for cognitive model (step-down passive avoidance), minimal efficacious dose: cognitive enhancement
Description: In step-down passive avoidance a rat is placed on a platform located in the center of an electrified grid floor that is contained within a large (45 cm×45 cm×50 cm) white translucent Plexiglas® enclosure. The natural inclination of the rat is to step off the platform and investigate its surroundings. […] Each time the animal steps off the platform it receives a mild foot shock of 2 mAmps×6 sec. Following each shock the animal is removed from the box, placed in its cage for a one minute inter-trial interval, and then returned to the platform. The latency to step down on each trial, the number of trials taken to reach criterion during training and the retention latency are collected.
Testing is conducted approximately 24 hrs. after training. Drug-free animals are placed on the platform in the box in which they will have been trained and the latency to step down onto the grid floor is recorded for one trial as a measure of memory retention.

[4] = molecular target: α3β3γ2 GABAA subtype receptor (Homo sapiens, UniProt P18507+P34903); assay: oocyte electrophysiology, two electrode voltage-clamp, potentiation of GABA current; format: cell-based; details: Xenopus oocytes, human subunits, GABA EC10
Experimental: (§1) Assays are carried out as described previously in White and Gurley, 1995 and White, et al., 1995. Xenopus laevis oocytes are enzymatically isolated and injected with non-polyadenylated cRNA for human derived α, β and γ GABAA subunits, respectively. In more preferred embodiments cRNA for the α1β2γ2, α2β3γ2, α3β3γ2, and α5β3γ2 subunit combinations are injected. Only one of these subunit combinations is injected per cell. For each subunit combination, sufficient message is injected to result in current amplitudes of >10 nA when 1 μM GABA is applied. Electrophysiological recordings are carried out using the two electrode voltage-clamp technique at a membrane holding potential of −70 mV.
(§2) Compounds are evaluated against a GABA concentration that evokes <10% (EC10) of the maximal evocable GABA current. Each oocyte is exposed to increasing concentrations of compound in order to evaluate a concentration/effect relationship.
(§3) Specificity of a compound for the Ro15-1788 site is determined following completion of the concentration/effect curve. After washing the oocyte sufficiently to remove previously applied compound, the oocyte is exposed to GABA and 1 μM Ro15-1788, followed by exposure to GABA, 1 μM Ro15-1788, and compound. Percent change due to addition of compound is calculated as described above. Any percent change observed in the presence of Ro15-1788 is subtracted from the percent changes in current amplitude observed in the absence of 1 μM Ro15-1788. These net values are used for the calculation of average activity and EC50 values.
(§4) To evaluate average activity and EC50 values, the concentration/effect data are averaged across cells and fit to the logistic equation. Average values are reported as mean ±standard error.

[5] = molecular target: α2β3γ2 GABAA subtype receptor (Homo sapiens, UniProt P18507+P47869); assay: as above; format: cell-based; details: Xenopus oocytes, human subunits, GABA EC10
Experimental: as §1, §2, §3, §4

[6] = molecular target: α1β2γ2 GABAA subtype receptor (Homo sapiens, UniProt P14867+P18507); assay: as above; format: cell-based; details: Xenopus oocytes, human subunits, GABA EC10; for Emax: read-out: oocyte electrophysiology maximum potentiation (%) α1β2γ2
Experimental: as §1, §2, §3, §4

[7] = molecular target: α5β3γ2 GABAA subtype receptor (Homo sapiens, UniProt P18507+P31644); assay: as above; format: cell-based; details: Xenopus oocytes, human subunits, GABA EC10; for Emax: read-out: oocyte electrophysiology maximum potentiation (%) α5β3γ2
Experimental: as §1, §2, §3, §4

rats [8] = assay: Porsolt forced swim test; format: in vivo; details: rat, administered IV, statistically significant response
Description: The effects measured in this model have been correlated to antidepressant efficacy for drugs. The paradigm of this model is that an effective antidepressant compound will cause a rat to make greater attempts to escape a water-filled cylinder than a rat given vehicle only.
Animals used in this study were non-naive male Sprague Dawley Rats (SASCO, St. Louis) weighing between 280-350 grams. The test apparatus consists of 6 clear Plexiglas cylinders 40 cm high×19 cm wide. Cylinders are filled to 18 cm with 25° C. water. Each rat is placed in a cylinder for a 15 minute training session. Following either subchronic or acute dosing of either vehicle (0.5% methylcellulose) of compound, animals are brought back 24 hours later for a 5 minute test session. These test session is videotaped for later scoring.
Subchronic dosing consists of administering drug three times in the 24-hour period between training and testing. The drug is administered 24 hrs., 5 hrs., and 1 hr. prior to the test session. Acute dosing consists of administering the drug once, 1 hour prior to the test session. Scoring is done using a time-sampling computer program written in Visual Basic and run in DOS. […] These sampling score are then converted into percentages of the test session.

rats [9] = assay: elevated plus maze; format: in vivo; details: rat, IV, statistically significant response (anxiolytic effect)
Experimental: The elevated plus maze model capitalizes on rats' innate fear of open, elevated places. The test apparatus is an elevated plus maze consisting of two open arms and two closed arms. A rat will naturally chose to spend more time on the closed arms of the maze than on the open arms but that if an efficacious anxiolytic compound is administered to the rat prior to the test the amount it of time the rat spends in the open arms is increased.
Test compound is administered IV in a 50% PEG (polyethylene glycol) vehicle 5 minutes prior to the test session. A range of compound doses is typically used and 8-10 rats are tested at each dose. The rat is placed in the center of the maze facing one of the open arms. The animal's locomotion is tracked over a five minute test session using photocells interfaced to a computer. The computer measures the number of entries into each arm and the time spent on each arm. An anxiolytic effect in the elevated plus maze model is defined by an increase in the percentage of time spent on the open arms in compound versus vehicle treated animals.

[10] = IV, hypnotic effect (Table VII)
[11] = IV, sedation as side effect (Tables V and IX)

α5β3γ2 GABAA subtype receptor, sequence (P31644 32-462): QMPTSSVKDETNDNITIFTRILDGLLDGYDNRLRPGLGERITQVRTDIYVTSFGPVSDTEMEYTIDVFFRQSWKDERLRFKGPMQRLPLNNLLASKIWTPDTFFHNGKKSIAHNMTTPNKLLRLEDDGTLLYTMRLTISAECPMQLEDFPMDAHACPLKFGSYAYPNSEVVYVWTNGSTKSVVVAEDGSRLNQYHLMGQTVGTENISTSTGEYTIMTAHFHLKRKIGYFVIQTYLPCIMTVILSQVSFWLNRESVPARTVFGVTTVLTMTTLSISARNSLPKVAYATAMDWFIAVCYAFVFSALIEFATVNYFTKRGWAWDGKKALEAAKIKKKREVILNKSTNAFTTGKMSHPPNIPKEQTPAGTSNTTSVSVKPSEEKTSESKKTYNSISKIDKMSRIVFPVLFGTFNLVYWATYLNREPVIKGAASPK
α5β3γ2 GABAA subtype receptor, sequence (P28472 26-473 partner): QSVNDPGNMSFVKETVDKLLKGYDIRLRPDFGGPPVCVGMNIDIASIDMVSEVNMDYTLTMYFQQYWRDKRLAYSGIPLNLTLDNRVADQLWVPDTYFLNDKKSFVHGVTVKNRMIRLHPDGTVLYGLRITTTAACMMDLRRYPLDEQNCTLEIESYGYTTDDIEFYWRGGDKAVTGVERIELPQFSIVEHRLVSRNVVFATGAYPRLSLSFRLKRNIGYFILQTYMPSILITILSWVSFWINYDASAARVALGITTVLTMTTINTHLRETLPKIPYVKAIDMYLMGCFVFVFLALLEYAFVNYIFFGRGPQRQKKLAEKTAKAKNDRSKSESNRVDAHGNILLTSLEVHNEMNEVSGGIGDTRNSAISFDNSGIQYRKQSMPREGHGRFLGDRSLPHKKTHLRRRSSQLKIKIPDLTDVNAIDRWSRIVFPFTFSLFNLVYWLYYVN
α5β3γ2 GABAA subtype receptor, sequence (P18507 40-475): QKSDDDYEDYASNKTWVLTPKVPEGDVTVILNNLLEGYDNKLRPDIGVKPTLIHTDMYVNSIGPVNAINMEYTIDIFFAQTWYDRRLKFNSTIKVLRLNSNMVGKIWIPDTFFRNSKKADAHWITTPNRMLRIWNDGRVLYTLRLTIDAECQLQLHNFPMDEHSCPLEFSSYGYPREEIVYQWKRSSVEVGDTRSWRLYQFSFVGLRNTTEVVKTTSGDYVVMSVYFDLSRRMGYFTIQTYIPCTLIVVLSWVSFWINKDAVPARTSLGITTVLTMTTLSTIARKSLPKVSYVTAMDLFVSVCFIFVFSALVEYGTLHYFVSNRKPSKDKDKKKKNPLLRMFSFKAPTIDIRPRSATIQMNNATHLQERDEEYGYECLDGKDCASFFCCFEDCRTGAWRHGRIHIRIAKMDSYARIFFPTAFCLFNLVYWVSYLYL
α1β2γ2 GABAA subtype receptor, sequence (P14867 28-456): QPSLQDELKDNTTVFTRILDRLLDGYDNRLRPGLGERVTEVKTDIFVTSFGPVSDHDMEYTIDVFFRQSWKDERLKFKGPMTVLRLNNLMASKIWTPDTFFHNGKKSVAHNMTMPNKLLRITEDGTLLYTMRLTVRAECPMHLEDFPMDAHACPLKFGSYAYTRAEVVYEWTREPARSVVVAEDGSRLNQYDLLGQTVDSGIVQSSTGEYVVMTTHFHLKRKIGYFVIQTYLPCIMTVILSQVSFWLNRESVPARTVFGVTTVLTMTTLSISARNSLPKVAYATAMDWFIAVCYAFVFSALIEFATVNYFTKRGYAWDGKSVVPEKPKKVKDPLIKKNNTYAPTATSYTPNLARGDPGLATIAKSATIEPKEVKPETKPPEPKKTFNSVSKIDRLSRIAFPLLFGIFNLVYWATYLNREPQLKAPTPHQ
α1β2γ2 GABAA subtype receptor, sequence (P47870 25-512 partner limits assumed): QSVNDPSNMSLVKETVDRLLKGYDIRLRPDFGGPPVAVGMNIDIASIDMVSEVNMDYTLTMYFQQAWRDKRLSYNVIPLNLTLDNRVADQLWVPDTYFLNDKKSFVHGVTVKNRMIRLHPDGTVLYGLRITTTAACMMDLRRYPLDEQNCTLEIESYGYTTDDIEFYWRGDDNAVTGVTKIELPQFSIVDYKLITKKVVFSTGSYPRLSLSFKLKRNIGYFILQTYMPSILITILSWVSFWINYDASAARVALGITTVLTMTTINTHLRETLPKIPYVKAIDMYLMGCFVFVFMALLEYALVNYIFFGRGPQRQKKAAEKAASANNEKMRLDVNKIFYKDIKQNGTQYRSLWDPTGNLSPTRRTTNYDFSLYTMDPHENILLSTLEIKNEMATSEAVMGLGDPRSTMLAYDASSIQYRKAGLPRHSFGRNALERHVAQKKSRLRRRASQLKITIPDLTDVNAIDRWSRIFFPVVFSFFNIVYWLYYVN
α1β2γ2 GABAA subtype receptor, sequence (P18507 40-475): as the sequence (P18507 40-475) above
α3β3γ2 GABAA subtype receptor, sequence (P34903 29-492): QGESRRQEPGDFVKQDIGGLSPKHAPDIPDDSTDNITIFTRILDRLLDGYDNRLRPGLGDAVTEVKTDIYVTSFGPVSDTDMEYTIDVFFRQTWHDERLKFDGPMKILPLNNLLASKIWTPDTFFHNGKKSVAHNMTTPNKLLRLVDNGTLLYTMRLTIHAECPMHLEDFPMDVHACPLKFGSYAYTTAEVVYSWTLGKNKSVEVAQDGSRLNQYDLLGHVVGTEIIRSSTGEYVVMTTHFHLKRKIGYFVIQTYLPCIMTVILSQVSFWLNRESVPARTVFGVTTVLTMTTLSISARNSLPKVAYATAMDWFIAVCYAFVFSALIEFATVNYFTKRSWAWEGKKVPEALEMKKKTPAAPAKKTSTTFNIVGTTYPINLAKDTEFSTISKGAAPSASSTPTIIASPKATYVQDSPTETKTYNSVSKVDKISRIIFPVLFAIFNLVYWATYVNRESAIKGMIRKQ
α3β3γ2 GABAA subtype receptor, sequence (P28472 26-473 partner): as the sequence (P28472 26-473 partner) above
α3β3γ2 GABAA subtype receptor, sequence (P18507 40-475): as the sequence (P18507 40-475) above
α2β3γ2 GABAA subtype receptor, sequence (P47869 29-451): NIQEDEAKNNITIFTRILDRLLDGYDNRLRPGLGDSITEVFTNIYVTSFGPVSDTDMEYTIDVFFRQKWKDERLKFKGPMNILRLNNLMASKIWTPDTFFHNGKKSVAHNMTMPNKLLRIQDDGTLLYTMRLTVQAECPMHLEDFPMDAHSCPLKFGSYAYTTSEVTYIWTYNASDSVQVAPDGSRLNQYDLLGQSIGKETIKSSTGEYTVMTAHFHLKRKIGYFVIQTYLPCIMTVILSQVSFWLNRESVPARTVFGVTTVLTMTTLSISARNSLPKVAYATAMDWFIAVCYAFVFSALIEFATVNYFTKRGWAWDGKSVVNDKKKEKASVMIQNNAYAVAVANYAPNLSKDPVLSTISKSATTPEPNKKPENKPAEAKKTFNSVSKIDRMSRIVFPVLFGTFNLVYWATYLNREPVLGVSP
α2β3γ2 GABAA subtype receptor, sequence (P28472 26-473 partner): as the sequence (P28472 26-473 partner) above
α2β3γ2 GABAA subtype receptor, sequence (P18507 40-475): as the sequence (P18507 40-475) above

Row | Structure (SMILES) | Ki [1] | spontaneous locomotor activity, minimal efficacious dose (rats [2]; [10]) | oocyte electrophysiology maximum potentiation (%) α3β3γ2 [4] | oocyte electrophysiology maximum potentiation (%) α2β3γ2 [5] | oocyte electrophysiology maximum potentiation (%) α1β2γ2 [6] | oocyte electrophysiology maximum potentiation (%) α5β3γ2 [7] | Emax [7] | elevated plus maze, minimal efficacious dose (rats [9]) | further results
1 | Cc1ccc(-c2nc3ccc(C)cn3c2CC(=O)N(C)C)cc1 [Zolpidem, reference compound] | 48 nM | 0.25 mg/kg | 882% | 350% | 263% | – | – | – | step-down passive avoidance, minimal efficacious dose (rats [3]; IV, cognitive impairment side effect (Table VII)): 0.5 mg/kg
2 | CC1CC(=O)c2c(C(=O)Nc3ccc(F)cc3)c[nH]c2C1 (stereo not shown) [compound 8] | 24 nM | 0.5 mg/kg | 61% | 42% | 17% | 16% | – | – | –
3 | CC(C)(C)OC(=O)c1ncn2c1C1CCCN1C(=O)c1c(Br)cccc1-2 (stereo not shown) [Ro16-6028, reference compound] | 0.48 nM | – | 76% | 37% | 40% | 64% | – | – | Porsolt swim test, minimal efficacious dose (rats [8]): 1 mg/kg; spontaneous locomotor activity, minimal efficacious dose (rats [2]; [11]): 0.06 mg/kg; EC50 [4]: 5 nM; EC50 [7]: 3 nM; EC50 [5]: 5 nM; EC50 [6]: 3 nM
4 | O=c1[nH]c2c(n1-c1nc3ccc(F)c(F)c3o1)CCCCC2 [compound 7] | 3 nM | 0.125 mg/kg | 83% | 51% | 18% | – | -23% | – | –
5 | c1cc2c(cc1-c1ncc3[nH]c4c(c3n1)CCCC4)OCO2 [compound 9] | 7.8 nM | 0.5 mg/kg | 23% | 53% | 33% | – | < 10% | – | step-down passive avoidance, minimal efficacious dose (rats [3]; in vivo, iv, 24 h): 0.5 mg/kg
6 | O=C(Nc1ccc(OCCO)cc1)c1c[nH]c2c1C(=O)CCC2 [compound 12] | 5.4 nM | – | 82% | 63% | 15% | – | -12% | – | cognitive model (step-down passive avoidance), minimal efficacious dose (rats [3]; IV): 0.06 mg/kg
7 | COc1ccc(NC(=O)c2c[nH]c3c2C(=O)CC(C)(C)C3)c(F)c1 [compound 6] | 11 nM | 0.25 mg/kg | 95% | 72% | 25% | 42% | – | – | step-down passive avoidance, minimal efficacious dose (rats [3]; in vivo, iv, 24 h): 4 mg/kg
8 | Cc1nnc2n1-c1ccc(Cl)cc1C(c1ccccc1)=NC2 [Alprazolam, reference compound] | 3.3 nM | – | 774% | 333% | 327% | 206% | – | 0.0625 mg/kg | spontaneous locomotor activity, minimal efficacious dose (rats [2]; [11]): 0.125 mg/kg
9 | CNCc1ccc(NC(=O)c2c[nH]c3c2C(=O)CCCC3)cc1 [compound 4] | – | – | – | – | – | 38% | 0% | 0.5 mg/kg | Porsolt swim test, minimal efficacious dose (rats [8]): 20 mg/kg
10 | O=c1c2c[nH]c3ccccc3n-2c(=O)n1-c1ccc(F)cc1 [compound 10] | 10 nM | – | 23% | 22% | – | – | -27% | – | cognitive model (step-down passive avoidance), minimal efficacious dose (rats [3]; IV): 0.25 mg/kg; Emax [6]: 0%
11 | O=c1c(-c2ccccc2F)nc2c[nH]c3ccccc3n1-2 [compound 2] | 10 nM | – | 39% | 40% | 18% | – | -11% | 0.5 mg/kg | spontaneous locomotor activity, minimal efficacious dose (rats [2]; in vivo, iv, 15 min): 4 mg/kg
12 | O=C(Nc1cccc(F)c1)c1c[nH]c2c(c1=O)CCC2 [compound 5] | 8.3 nM | – | 44% | 44% | – | – | 0% | 0.5 mg/kg | Emax [6]: 0%
